From patent US20250145576A1, “CATHEPSIN K INHIBITOR, AND PREPARATION METHOD THEREFOR AND USE THEREOF” (SHANDONG NEW TIME PHARMACEUTICAL CO., LTD., priority 2022, published 2025)
Read-outs that look alike come from different tables or passages of the source. Blank lines part the entries; values can stand above or below the compound they belong to.

Experiments:
Cathepsin K = Cathepsin K (Homo sapiens (Human), UniProt P43235); test: Cat K inhibitor screening kit, AFC substrate fluorescence; format: biochemical
Method: Reagent information: Cat K inhibitor screening kit: batch number, 6L23K01500; supplier, BiVision. Drug preparation: compounds were dissolved in DMSO and prepared into 10 mM stock solutions. When in use, the stock solutions were prepared into the required concentrations by using a buffer.
Cathepsin K (CTSK, EC 3.4.22.38) is a lysosomal cysteine protease, participates in osteoclastic bone remodeling and resorption, and can further degrade collagen, gelatin and elastin. The cathepsin K inhibitor screening kit from Biovision uses the ability of the active cathepsin K to cleave a synthetic AFC-based peptide substrate to release AFC and the AFC can be easily quantified by using a fluorometer or fluorescent microplate reader. In the presence of a specific cathepsin K specific inhibitor, the cleavage of the substrate is reduced/eliminated, resulting in a reduction or complete loss of AFC fluorescence. The simple and high-throughput adaptive assay kit can be used to screen/study/characterize a potential inhibitor of the cathepsin K.
(§1) 20 μL of a buffer, a Cat K inhibitor and test compounds (1 μM and 10 μM) were added to 96-well plates to serve as an EC well, an IC well and an S well, respectively; 50 μL of a Cat K enzyme solution was added into all the wells respectively and the mixture was incubated for 10-15 min at room temperature to establish an enzyme inhibitor complex; 30 μL of a Cat K substrate solution was added into all the wells and the mixture was incubated for 30-60 min at room temperature; and the final volume of the reaction was 100 μL.
The screening method was the same as 1.1, the concentrations of the test compounds were set between 0.1 nM and 10 μM, 4-5 concentrations were selected for detection, IC50 curves were drawn, and IC50 values were calculated.

RAW264.7 cells = test: Osteoclast differentiation of RAW264.7 cells induced by RANKL, TRAP staining; format: cell-based; conditions: for osteoclastogenesis compared with model group (in words): K29 at 1 μM and 10 μM, K31 at 100 nM and 500 nM
Method: RAW264.7 cells were inoculated at a density of 1×10^5/well in 96-well plates and cultured in DMEM containing 10% fetal bovine serum and 1% penicillin/streptomycin. The cells were cultured in a constant-temperature incubator containing 5% CO2 at 37° C. 100 ng/mL of a RANKL inducing solution was added into each well of the administration groups and a model group to culture osteoclasts, the solution (containing RANKL) was changed every 2-3 days, inhibitor working solutions with different concentrations were added into the administration groups after the solution was changed for the 3rd time, a PBS working solution with the same volume was added into the model group, and the cells were continuously cultured for 24 h; and in the control group, the RANKL inducing solution and the inhibitor working solution were not added, and the PBS working solution with the same total volume was added. A culture supernatant was removed, the cells were rinsed 3 times with PBS and stained with a TRAP staining kit, and the multinucleated osteoclasts were observed under an optical microscope and counted.

[1] = set-up: species or system SD rats; conditions: rat, in vivo
Method: • Chromatographic column: […] Electrospray ionization (ESI); ion spray voltage: 3,500 V; ion source temperature: 300° C.; auxiliary gas: 45 Arb; and sheath gas: 10 Arb. • Intravenous intraperitoneal administration solution: prepared with 0.5% HS-15 normal saline solution with the concentration of 0.2 mg/mL; and • intragastric administration suspension: ground and suspended with 0.5% CMC-Na aqueous solution with the concentration of 0.5 mg/mL. Each administration was tested using 2 SD rats per compound. The two compounds […] were subjected to intravenous injection and intragastric administration respectively. […] All blood samples were anticoagulated by heparin and centrifuged for 10 min at 4,000 g. The supernatant plasma was taken for cryopreservation to be tested. 50 μL of the plasma sample was taken, 150 μL of acetonitrile was added, the mixture was evenly mixed by vortex and centrifuged at 9,100 g for 10 min, and a supernatant was taken and 2 μL of the supernatant was injected and detected on a machine.

Cathepsin B = Cathepsin B (Homo sapiens (Human), UniProt P07858); test: Screening of Cathepsin B, fluorescence; format: biochemical; conditions: >> inhibition rate did not exceed 20% at test concentration; > greater than 35%; ≈ about 50%; < less than 50%
Method: as §1, with “10 μL” for “20 μL”, “Cat B” for “Cat K”, “complex; 40” for “complex; 30”
(§2) The screening method was the same as above, the concentrations of the test compounds were set between 0.1 nM and 10 μM, 4-5 concentrations were selected for detection, IC50 curves were drawn, and IC50 values were calculated.

Cathepsin S = test: Screening of Cathepsin S, fluorescence; format: biochemical; conditions: >> inhibition rate did not exceed 20% at test concentration; > greater than 35%; ≈ about 50%; < less than 50%
Method: as §1, with “10 μL of” for “20 μL of”, “a Cat S inhibitor and” for “a Cat K inhibitor and”, “a […]” for “a Cat K enzyme solution”, “inhibitor complex; 40 μL of” for “inhibitor complex; 30 μL of”, “a Cat S substrate solution” for “a Cat K substrate solution”
as §2

Sequence of Cathepsin K (P43235 115-329): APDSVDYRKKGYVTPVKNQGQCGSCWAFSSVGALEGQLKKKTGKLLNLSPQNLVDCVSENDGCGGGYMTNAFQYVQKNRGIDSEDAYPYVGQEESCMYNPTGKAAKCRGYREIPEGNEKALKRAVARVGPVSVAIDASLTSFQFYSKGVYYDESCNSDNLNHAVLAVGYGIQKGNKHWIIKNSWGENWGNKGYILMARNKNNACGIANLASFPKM

IC50 (Cathepsin K): 100 to 500 nM
SMILES: Cc1ccc(-c2ccc(CN(CC(C)(C)C)c3nccc(C#N)n3)cc2)s1 [Compound K10, 2-[(2,2-dimethylpropyl){[4-(5-methylthiophen-2-yl)phenyl]methyl}amino]pyrimidine-4-carbonitrile]

F [1]: 62.1%
Tmax ([1]; iv, 1 mg/kg): 1.98 min
Bioavailability % ([1]; po): 62.1%
CLz ([1]; po): 26.7 mL/min/kg
Cmax ([1]; po): 1,285 ng/mL
Tmax ([1]; po): 15 min
Vz ([1]; po): 3.83 L/kg
t1/2z ([1]; po): 99 min
Tmax ([1]; po, 5 mg/kg): 15 min
SMILES: COc1cccc2c3c([nH]c12)CCN(C(=O)[C@@H]1CCCC[C@H]1C(=O)N[C@H]1COCC1=O)C3 [Compound K29, (1R,2R)-2-(6-methoxy-2,3,4,5-tetrahydro-1H-pyrido[4,3-b]indole-2-carbonyl)-N—(S)-(4-oxotetrahydrofuran-3-yl)-cyclohexane-1-carboxamide]
Number of osteoclasts (RAW264.7 cells; 1 μM): 13
Number of osteoclasts (RAW264.7 cells; 10 μM): 11.25
osteoclastogenesis (in words) (RAW264.7 cells; 10 μM): obviously inhibited the osteoclastogenesis
osteoclastogenesis compared with model group (in words) (RAW264.7 cells): tendency to inhibit osteoclastogenesis

IC50 (Cathepsin K): 10 to 100 nM
IC50 (Cathepsin K; stated in text): < 100 nM
Cat B/K ratio of inhibitory activities (Cathepsin B): >1,600
SMILES: CN1CCN(c2ccc(CN(CC(C)(C)C)c3nccc(C#N)n3)cc2)CC1 [Compound K1, 2-[(2,2-dimethylpropyl){[4-(4-methylpiperazin-1-yl)phenyl]methyl}amino]pyrimidine-4-carbonitrile]
Cat S/K ratio of inhibitory activities (Cathepsin S): >800

Cat B/K ratio of inhibitory activities (Cathepsin B): >590
SMILES: CC(C)(F)C[C@H](N[C@@H](c1ccc(-c2ccc(S(C)(=O)=O)cc2)cc1)C(F)(F)F)C(=O)NC1(C#N)CC1 [Odanacatib, reference compound]
Cat S/K ratio of inhibitory activities (Cathepsin S): <290

IC50 (Cathepsin K): 10 to 100 nM
SMILES: O=C1COCC1NC(=O)[C@@H]1CCCC[C@H]1C(=O)N1CCc2c([nH]c3c(F)cccc23)C1 (stereo partly drawn) [Compound K19, (1R,2R)-2-(8-fluoro-2,3,4,9-tetrahydro-1H-pyrido[3,4-b]indole-2-carbonyl)-N-(4-oxotetrahydrofuran-3-yl)cyclohexane-1-carboxamide]

IC50 (Cathepsin K): 100 to 500 nM
SMILES: CC(C)(C)CN(Cc1ccc(-c2ccc(C#N)s2)cc1)c1nccc(C#N)n1 [Compound K7, 2-({[4-(5-cyanothiophen-2-yl)phenyl]methyl}(2,2-dimethylpropyl)amino)pyrimidine-4-carbonitrile]

IC50 (Cathepsin K): < 10 nM
IC50 (Cathepsin K; stated in text): < 10 nM
SMILES: CN1CCN(c2ccc(-c3ccc(CN(CC(C)(C)C)c4nccc(C#N)n4)cc3)cc2)CC1 [Compound K13, 2-[(2,2-dimethylpropyl) ({4-[4-(4-methylpiperazin-1-yl)phenyl]phenyl}methyl)amino]pyrimidine-4-carbonitrile]

IC50 (Cathepsin K): < 10 nM
IC50 (Cathepsin K; stated in text): < 10 nM
Cat B/K ratio of inhibitory activities (Cathepsin B): >15,000
SMILES: CN1CCN(c2ccc(-c3ccc(CN(CC4CCCCC4)c4nccc(C#N)n4)cc3)cc2)CC1 [Compound K15, 2-[(cyclohexylmethyl) ({4-[4-(4-methylpiperazin-1-yl)phenyl]phenyl}methyl)amino]pyrimidine-4-carbonitrile]
Cat S/K ratio of inhibitory activities (Cathepsin S): ≈7,460

IC50 (Cathepsin K): 100 to 500 nM
Cat B/K ratio of inhibitory activities (Cathepsin B): >>3,300
SMILES: CC(C)(C)CN(Cc1ccc(-c2ccc(S(C)(=O)=O)cc2)cc1)c1nccc(C#N)n1 [Compound K6, 2-[(2,2-dimethylpropyl) ({4-[4-(methylsulfonyl)phenyl]phenyl}methyl)amino]pyrimidine-4-carbonitrile]
Cat S/K ratio of inhibitory activities (Cathepsin S): >>3,300

IC50 (Cathepsin K): 100 to 500 nM
Cat B/K ratio of inhibitory activities (Cathepsin B): >>3,300
SMILES: CS(=O)(=O)c1ccc(-c2ccc(CN(CC3CCCCC3)c3nccc(C#N)n3)cc2)cc1 [Compound K16, 2-[(cyclohexylmethyl) ({4-[4-(methylsulfonyl)phenyl]phenyl}methyl)amino]pyrimidine-4-carbonitrile]
Cat S/K ratio of inhibitory activities (Cathepsin S): >>3,300

IC50 (Cathepsin K): 100 to 500 nM
SMILES: CC(C)(C)CN(Cc1ccc(-c2cscn2)cc1)c1nccc(C#N)n1 [Compound K17, 2-(neopentyl(4-(thiazol-4-yl)benzyl)amino)pyrimidine-4-carbonitrile]

F [1]: 51.0%
Tmax ([1]; iv, 1 mg/kg): 1.98 min
Bioavailability % ([1]; po): 51.0%
CLz ([1]; po): 27.8 mL/min/kg
Cmax ([1]; po): 936 ng/mL
Tmax ([1]; po): 15 min
Vz ([1]; po): 4.38 L/kg
t1/2z ([1]; po): 109 min
Tmax ([1]; po, 5 mg/kg): 15 min
SMILES: COc1cc(F)cc2c3c([nH]c12)CCN(C(=O)[C@@H]1CCCC[C@H]1C(=O)N[C@H]1COCC1=O)C3 [Compound K31, (1R,2R)-2-(8-fluoro-6-methoxy-2,3,4,5-tetrahydro-1H-pyrido[4,3-b]indole-2-carbonyl)-N—(S)-(4-oxotetrahydrofuran-3-yl)-cyclohexane-1-carboxamide]
Number of osteoclasts (RAW264.7 cells; 100 nM): 13.25
Number of osteoclasts (RAW264.7 cells; 500 nM): 14
osteoclastogenesis compared with model group (in words) (RAW264.7 cells): tendency to inhibit osteoclastogenesis

IC50 (Cathepsin K): 100 to 500 nM
Cat B/K ratio of inhibitory activities (Cathepsin B): >>2,100
SMILES: CC(C)(C)CN(Cc1ccc(-c2ccccc2)cc1)c1nccc(C#N)n1 [Compound K2, 2-[(2,2-dimethylpropyl)[(4-phenylphenyl)methyl]amino]pyrimidine-4-carbonitrile]
Cat S/K ratio of inhibitory activities (Cathepsin S): >>2,100
